Measured values published in patent publication US12268901B2, “Targeting cell tropism receptors to inhibit cytomegalovirus infection” (priority 2017, dated 2025).

Key:
[1] = tested on: Akt phosphorylation in ARPE19 cells; assay: PI3/Akt signaling induced by virus binding (immunoblot phospho Akt ser473); format: cell-based; conditions: Peptide 1 100 ug/ml preincubated with virus at 37° C. for 2 h, ARPE19, 30 minutes post infection
Description: FIGS. 8A-C. […] (A) Cells were serum starved at 37° C. for overnight and cells were pretreated with DMSO (control), LY294002 (50 uM) in serum-free medium prior to infection for two hours. Plated cells were cooled on ice for 30 mins. Cells were infected by purified TB40E-GFP virus (no serum) at MOI of 2.0 PFU per cell for 2 hours on ice. Cell plates were then shifted to 37° C. incubator (time 0). Cells were harvested at 0, 5, 10 mins post infection. Protein extracts were subjected to immunoblotting with anti-phospho Akt (ser473), Akt or anti-β-actin (loading control). (B) ARPE19 epithelial sgCon and sgOR14I1 knock out cells were serum starved at 37° C. for overnight. Plated cells were cooled on ice for 30 mins. Cells were infected by purified TB40E-GFP virus (no serum) at MOI of 2.0 PFU per cell for 2 hours on ice. Cell plates were then shifted to 37° C. incubator (time 0). Cell were harvested at 0, 5 mins post infection. (C) Peptide 1 (100 ug/ml) was preincubated with TB40E-GFP virus at 37° C. for 2 h and the mixture applied to ARPE19 cells. The phosphorylation of Akt and total Akt were detected 30 minutes post infection of TB40E-GFP.
Cells were serum starved at 37° C. for overnight and cells were pretreated with DMSO (DMSO-carrier control) or LY294002 (50 uM) in serum-free medium prior to infection for two hours. Cell plates were cooled on ice for 30 mins. […]

[2] = tested on: HCMV infection of ARPE19 epithelial cells; assay: Peptide blocking assay, infection of ARPE19 cells (percent GFP or IE positive cells); format: cell-based, Human cytomegalovirus (HCMV); conditions: peptide 1 100 μg/ml
Description: (§1) (A) Different amounts of peptide 1 were preincubated with TB40E-GFP virus and the mixture applied to ARPE19. Viral DNA levels were quantified by qPCR. (B) The results in (A) are presented as the relative amount of viral DNA relative to the DMSO control. (C) TB40E-GFP virus was preincubated with peptide 1 (100 μg/ml), or DMSO, followed by infection of ARPE19 cells (MOI=2.0). Cells were imaged for GFP expression at 2 dpi (D2) and 7 dpi (D7). (D) TB40E-GFP or BADrUL131-GFP virus, both expressing PC, were preincubated with peptide 1 (100 μg/ml), or DMSO prior to infection of ARPE19 cells (MOI=2.0). Cells were fixed and imaged for GFP at 2 dpi. All data represent the mean of n=3 experiments+/−SD. (E) Culture media supernatants from (C) were harvested on the indicated dpi and assayed for infectious virus by plaque assay. Values indicate the mean percent infected cells of 3 independent experiments±SD. ****p<0.0001.
FIG. 9. […] TB40E-GFP encoding the viral PC or AD169 lacking PC were preincubated with peptide 1 (100 μg/ml) and then infected on ARPE19 epithelial cells or HEL fibroblasts (MOI=2.0). Cells were fixed, permeabilized, stained for DNA, immunostained for anti-immediate early protein (IE) and imaged. […] Values indicate the mean percentage of infected cells of n=3 experiments±SD. **p<0.01; ***p<0.001.
FIG. 11. Each of the short peptides (aa sequences listed in Table 4; 150 uM), Peptide 1 (32.6 μM), or DMSO alone was preincubated with TB40E virus, followed by infection of ARPE19 cell lines (MOI=2.0). Cells were fixed and imaged for GFP and DNA at 2 dpi. Quantitation data indicating the percent GFP positive cells.
Live cell images: Phase and GFP signal images were captured on a Zeiss microscope (Zeiss AxioObserver Z1) at 10× magnification. Fixed cell images: cells were washed with PBS (Life Technologies) and fixed with 4% formalin in PBS (Sigma). DNA was stained with Hoechst 33342 dye (Life Technologies). The fixed cells were imaged using an Image Xpress Micro (IXM, Molecular Devices) at 4× magnification. Images were analyzed with MetaXpress imaging software (Molecular Devices) to determine the total cells per well and the percentage of infected cells (GFP positive) in each well. For IE immunostaining: fixed cells were permeabilized with 0.2% Triton X-100 (Sigma) in PBS. Blocking was performed with 1% BSA (Calbiochem, 2930) in PBS with 0.3M glycine (Sigma). Cells were then incubated in antibody targeting the major IE proteins (IE, EMD Millipore, MAB8131) diluted in 1% BSA in PBS. Cells were then incubated in secondary antibody (Texas Red-conjugated goat anti-mouse IgG2A, Southern Biotech, 1080-07) in PBS containing 1% BSA.
At 2 dpi with HCMV TB40E-GFP virus at the indicated MOI, ARPE19 cells were fixed with 4% formaldehyde and nuclei stained with Hoechst 33342. ARPE19 cells were imaged on an automated IXM scanning microscope. Numbers of infected cells were determined by calculating the percent GFP positive cells using MetaXpress software.
The noted synthetic peptides (100 ug/ml each or as described) were mixed with TB40E-GFP virus (1.2×10^6 PFU) and incubated at 37° C. for 2 h by rocking. The resulting samples were then subjected to the virus binding or infection assay.

[3] = tested on: HCMV TB40E-GFP replication in ARPE19 cells; assay: Plaque assay of culture supernatants for infectious virus; format: cell-based, Human cytomegalovirus (HCMV); conditions: peptide 1 100 μg/ml, ARPE19, MOI=2.0, supernatants at indicated dpi
Description: as §1

Sequence: MDNLTKVTEFLLMEFSGIWELQVLHA (N-terminal fragment of OR14I1) [Peptide 1, synthetic peptide representing the N-terminus of OR14I1, position 1-26]
- Akt phosphorylation induced by HCMV infection [1]: abolished
- anti-viral action versus presence of viral PC ([2]; TB40E-GFP encoding PC or AD169 lacking PC, MOI=2.0): dependent on the presence of the PC
- anti-viral action versus viral strain ([2]; TB40E-GFP or BADrUL131-GFP, MOI=2.0, 2 dpi): independent of viral strain
- HCMV infection of ARPE19 epithelial cells (percent IE positive cells) ([2]; TB40E-GFP, MOI=2.0): blocks HCMV infection of ARPE19 epithelial cells
- long-term replication of HCMV (infectious virus by plaque assay) [3]: compromised the long-term replication of HCMV
